Results: ChEMBL document CHEMBL3988442, “University of Dundee, Small-Polar-MMV Screening Library” (2021)
“And” between values parts separate entries of the source, which are not always exact repeats. Equal entries are not always repeated.

Assays:
Histidine--tRNA ligase [1] = biological target: T1, Histidine--tRNA ligase (Trypanosoma cruzi (strain CL Brener), UniProt Q4DA54); assay: Trypanosoma cruzi histidyl tRNA synthetase (Tc-HisRS); format: functional
T1 sequence (Q4DA54 whole entry): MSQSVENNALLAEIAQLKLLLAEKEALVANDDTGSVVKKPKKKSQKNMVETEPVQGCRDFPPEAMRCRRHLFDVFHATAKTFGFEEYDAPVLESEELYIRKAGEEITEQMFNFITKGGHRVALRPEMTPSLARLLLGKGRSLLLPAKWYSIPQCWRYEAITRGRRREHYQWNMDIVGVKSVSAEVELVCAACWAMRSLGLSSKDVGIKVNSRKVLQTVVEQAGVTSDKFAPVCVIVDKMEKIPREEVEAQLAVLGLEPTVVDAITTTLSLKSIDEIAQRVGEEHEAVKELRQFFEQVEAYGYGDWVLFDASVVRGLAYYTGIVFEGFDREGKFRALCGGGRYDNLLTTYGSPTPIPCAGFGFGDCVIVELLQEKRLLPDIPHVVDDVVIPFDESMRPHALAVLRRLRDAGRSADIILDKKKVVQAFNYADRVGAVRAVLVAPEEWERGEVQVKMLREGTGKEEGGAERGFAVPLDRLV

[2] = biological target: Polyketide synthase Pks13 (Mycobacterium tuberculosis (strain ATCC 25618 / H37Rv), UniProt I6X8D2); assay: Mycobacterium tuberculosis Polyketide synthase 13 Thioesterase (PKS13); format: functional
Leishmania donovani = assay: Leishmania intramacrophage assay; format: functional, organism-based; details: for IC50: Leishmania donovani
Trypanosoma brucei = assay: Trypanosoma brucei 72 hour study; format: functional, organism-based; details: for IC50: Trypanosoma brucei, 72 h
Lysine--tRNA ligase = Lysine--tRNA ligase (Plasmodium falciparum (isolate 3D7), UniProt Q8IDJ8); assay: Pf-KRS-1 (Lysyl-RNA Synthetase-1, KRS-1, cytosolic KRS) from Plasmodium falciparum. Inhibitor assay, 384 well plate, luminescence read.; format: functional
Histidine--tRNA ligase [3] = biological target: T2, Histidine--tRNA ligase (Leishmania infantum, UniProt A4I591); assay: Leishmania infantum Histidine tRNA synthetase (LdHisRS); format: functional
T2 sequence (A4I591 whole entry): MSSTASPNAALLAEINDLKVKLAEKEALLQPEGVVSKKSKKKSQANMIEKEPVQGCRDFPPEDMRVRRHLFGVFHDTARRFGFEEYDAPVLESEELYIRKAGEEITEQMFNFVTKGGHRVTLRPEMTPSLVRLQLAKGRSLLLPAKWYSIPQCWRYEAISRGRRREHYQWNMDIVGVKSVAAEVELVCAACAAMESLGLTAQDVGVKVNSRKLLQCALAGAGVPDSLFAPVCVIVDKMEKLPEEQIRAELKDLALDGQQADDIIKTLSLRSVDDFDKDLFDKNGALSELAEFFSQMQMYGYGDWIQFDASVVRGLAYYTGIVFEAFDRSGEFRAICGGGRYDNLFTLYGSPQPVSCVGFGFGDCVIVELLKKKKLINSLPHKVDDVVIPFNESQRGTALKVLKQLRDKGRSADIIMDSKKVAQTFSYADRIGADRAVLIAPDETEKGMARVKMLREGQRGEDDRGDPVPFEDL

Chain of Lysine--tRNA ligase (Q8IDJ8 whole entry): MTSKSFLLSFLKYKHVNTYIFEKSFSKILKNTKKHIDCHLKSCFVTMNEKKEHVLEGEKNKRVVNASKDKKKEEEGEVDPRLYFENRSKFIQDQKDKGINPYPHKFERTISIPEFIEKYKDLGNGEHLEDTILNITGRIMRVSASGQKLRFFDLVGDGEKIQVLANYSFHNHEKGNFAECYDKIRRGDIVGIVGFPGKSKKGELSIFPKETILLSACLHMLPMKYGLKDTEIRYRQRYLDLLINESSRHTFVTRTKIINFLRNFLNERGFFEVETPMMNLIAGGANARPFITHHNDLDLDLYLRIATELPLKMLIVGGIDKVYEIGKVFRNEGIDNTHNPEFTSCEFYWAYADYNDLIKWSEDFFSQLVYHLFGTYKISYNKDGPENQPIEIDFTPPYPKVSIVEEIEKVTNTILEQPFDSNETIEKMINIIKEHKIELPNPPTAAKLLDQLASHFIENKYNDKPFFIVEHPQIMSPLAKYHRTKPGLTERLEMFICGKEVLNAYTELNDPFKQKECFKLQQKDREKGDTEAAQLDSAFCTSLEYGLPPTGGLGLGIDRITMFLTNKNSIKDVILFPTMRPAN
Chain of Polyketide synthase Pks13 (I6X8D2 whole entry): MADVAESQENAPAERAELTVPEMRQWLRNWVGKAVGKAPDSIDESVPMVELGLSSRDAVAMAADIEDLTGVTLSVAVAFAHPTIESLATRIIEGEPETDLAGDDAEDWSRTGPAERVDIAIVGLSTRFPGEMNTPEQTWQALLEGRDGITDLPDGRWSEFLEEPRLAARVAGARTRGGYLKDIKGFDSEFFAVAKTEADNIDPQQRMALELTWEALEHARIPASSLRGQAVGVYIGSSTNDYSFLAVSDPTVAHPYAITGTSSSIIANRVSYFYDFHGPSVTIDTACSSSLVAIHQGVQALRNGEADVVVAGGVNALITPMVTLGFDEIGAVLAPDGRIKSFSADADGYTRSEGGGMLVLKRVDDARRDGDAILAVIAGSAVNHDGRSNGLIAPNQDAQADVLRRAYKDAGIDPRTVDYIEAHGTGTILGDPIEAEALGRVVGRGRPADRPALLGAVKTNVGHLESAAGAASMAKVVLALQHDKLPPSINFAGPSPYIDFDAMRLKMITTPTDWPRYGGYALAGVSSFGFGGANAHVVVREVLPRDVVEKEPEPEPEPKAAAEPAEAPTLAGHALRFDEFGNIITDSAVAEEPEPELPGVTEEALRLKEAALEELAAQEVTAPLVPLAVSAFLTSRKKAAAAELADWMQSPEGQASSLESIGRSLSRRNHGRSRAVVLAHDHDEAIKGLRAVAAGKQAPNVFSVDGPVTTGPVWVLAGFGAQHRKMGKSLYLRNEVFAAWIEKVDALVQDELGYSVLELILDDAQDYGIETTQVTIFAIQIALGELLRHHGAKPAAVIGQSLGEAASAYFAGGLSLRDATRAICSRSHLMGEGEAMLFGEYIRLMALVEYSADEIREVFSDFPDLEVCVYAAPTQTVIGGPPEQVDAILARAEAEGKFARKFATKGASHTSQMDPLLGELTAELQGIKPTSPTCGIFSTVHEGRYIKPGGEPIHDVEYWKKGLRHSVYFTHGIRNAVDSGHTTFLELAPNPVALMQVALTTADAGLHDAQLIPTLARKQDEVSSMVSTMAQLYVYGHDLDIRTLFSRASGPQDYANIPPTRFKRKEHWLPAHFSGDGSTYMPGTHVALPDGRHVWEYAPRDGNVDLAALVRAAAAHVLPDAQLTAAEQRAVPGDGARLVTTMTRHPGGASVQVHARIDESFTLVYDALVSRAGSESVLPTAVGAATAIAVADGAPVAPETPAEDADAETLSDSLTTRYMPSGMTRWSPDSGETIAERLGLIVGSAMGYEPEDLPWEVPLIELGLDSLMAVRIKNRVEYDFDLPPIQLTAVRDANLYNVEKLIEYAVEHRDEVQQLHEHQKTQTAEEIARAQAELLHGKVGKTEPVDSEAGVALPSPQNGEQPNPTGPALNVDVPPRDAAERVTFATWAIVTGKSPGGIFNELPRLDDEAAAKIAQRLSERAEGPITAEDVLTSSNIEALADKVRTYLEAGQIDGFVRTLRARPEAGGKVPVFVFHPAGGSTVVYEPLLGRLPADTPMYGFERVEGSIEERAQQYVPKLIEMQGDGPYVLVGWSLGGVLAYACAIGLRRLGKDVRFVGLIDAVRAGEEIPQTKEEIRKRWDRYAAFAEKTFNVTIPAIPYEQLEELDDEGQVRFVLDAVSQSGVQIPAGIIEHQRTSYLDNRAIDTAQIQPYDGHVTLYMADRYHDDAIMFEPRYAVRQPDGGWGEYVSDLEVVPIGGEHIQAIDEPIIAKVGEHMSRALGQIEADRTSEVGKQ

SMILES: c1ccc(N2CCOCC3(CCCN(c4nccs4)C3)C2)nc1 (configuration not stated)
- IC50 (Histidine--tRNA ligase [1]): > 100 µM
- IC50 [2]: > 100 µM

SMILES: Cc1[nH]/c(=N\C(=O)c2csc(NC3CC3)n2)sc1C
- pIC50 (Leishmania donovani): 4.559
- IC50 (Leishmania donovani): 47.7 µM
- pIC50 (Trypanosoma brucei): 5.049 and 4.932
- IC50 (Trypanosoma brucei): 13.2 µM

SMILES: Cc1cnc(N2CCC3(CCN(CC4CC4)C3=O)CC2)nc1
- IC50 (Histidine--tRNA ligase [1]): > 100 µM
- IC50 [2]: > 100 µM

SMILES: CCN1CC(CN(C)c2cc(C)nc(N)n2)Oc2ccccc21 (configuration not stated)
- pIC50 (Leishmania donovani): 4.519
- IC50 (Leishmania donovani): 35.1 µM
- pIC50 (Trypanosoma brucei): 4.724 and 4.705
- IC50 (Trypanosoma brucei): 19.3 µM

SMILES: CCCn1cc(NC(=O)c2ccc(S(C)(=O)=O)cc2)ccc1=O
- IC50 (Histidine--tRNA ligase [1]): 21.5 µM and 19.6 µM
- IC50 (Lysine--tRNA ligase): > 50.1 µM
- IC50 (Histidine--tRNA ligase [3]): 1.71 µM and 0.847 µM and 0.944 µM and 1.37 µM

SMILES: COc1ccc(CNC(=O)Nc2ccc(=O)n(C)c2)cc1
- IC50 (Histidine--tRNA ligase [1]): 5.8 µM and 5.68 µM
- IC50 (Lysine--tRNA ligase): > 50.1 µM
- IC50 (Histidine--tRNA ligase [3]): 1.74 µM and 2.25 µM and 1.76 µM and 2.08 µM

SMILES: Cn1cc(NC(=O)NCc2ccoc2)ccc1=O
- IC50 (Histidine--tRNA ligase [1]): 7.29 µM and 8.84 µM
- IC50 (Lysine--tRNA ligase): > 50.1 µM
- IC50 (Histidine--tRNA ligase [3]): 3.44 µM and 3.04 µM

SMILES: CN(Cc1ccsc1)C(=O)Nc1ccc(=O)n(C)c1
- IC50 (Histidine--tRNA ligase [1]): 4.99 µM and 3.42 µM
- IC50 (Lysine--tRNA ligase): > 50.1 µM
- IC50 (Histidine--tRNA ligase [3]): 4.2 µM and 4.05 µM

SMILES: Cn1cc(NC(=O)NCc2ccsc2)ccc1=O
- IC50 (Histidine--tRNA ligase [1]): 4.72 µM and 5.06 µM
- IC50 (Lysine--tRNA ligase): > 50.1 µM
- IC50 (Histidine--tRNA ligase [3]): 2.07 µM and 2.41 µM and 2.32 µM and 2.42 µM

SMILES: Cc1cc(=O)n(C)cc1NC(=O)NCc1cccc(F)c1
- IC50 (Histidine--tRNA ligase [1]): 9.43 µM and 9.23 µM
- IC50 (Lysine--tRNA ligase): > 50.1 µM
- IC50 (Histidine--tRNA ligase [3]): 6.8 µM and 6.63 µM

SMILES: Cc1cc(=O)n(C)cc1NC(=O)Cc1cccc(Cl)c1
- IC50 (Histidine--tRNA ligase [1]): 4.77 µM
- IC50 (Lysine--tRNA ligase): > 50.1 µM
- IC50 (Histidine--tRNA ligase [3]): 5 µM and 6.56 µM

SMILES: Cc1cc(=O)n(C)cc1NC(=O)Cc1cc(F)ccc1F
- IC50 (Histidine--tRNA ligase [1]): 21.1 µM
- IC50 (Lysine--tRNA ligase): > 50.1 µM
- IC50 (Histidine--tRNA ligase [3]): 1.69 µM and 2.09 µM and 0.814 µM and 0.806 µM

SMILES: Cc1cc(=O)n(C)cc1NC(=O)Cc1cccc(F)c1
- IC50 (Histidine--tRNA ligase [1]): 6.21 µM
- IC50 (Lysine--tRNA ligase): > 50.1 µM
- IC50 (Histidine--tRNA ligase [3]): 7.6 µM and 8.67 µM

SMILES: Cc1ccc(CNC2CCN(CCc3ccncc3)CC2)cc1C
- pIC50 (Leishmania donovani): 4.955
- IC50 (Leishmania donovani): 15.6 µM
- pIC50 (Trypanosoma brucei): 5.061 and 5.288
- IC50 (Trypanosoma brucei): 6.7 µM

SMILES: COCC(C)NCc1nc(-c2ccc(C)cc2)c(-c2ccccn2)[nH]1 (configuration not stated)
- pIC50 (Leishmania donovani): 4.597
- IC50 (Leishmania donovani): 16 µM
- IC50 (Trypanosoma brucei): > 50.1 µM

SMILES: CN1[C@H]2CC[C@@H]1CN(C(=O)c1ccc(-c3ccccc3)[nH]1)CC2
- pIC50 (Leishmania donovani): 4.659
- IC50 (Leishmania donovani): 30.6 µM
- pIC50 (Trypanosoma brucei): 4.853 and 4.971
- IC50 (Trypanosoma brucei): 9.62 µM

SMILES: COc1ccc(-c2nc(CN3CCCC(OC)C3)c(C)o2)c(F)c1 (configuration not stated)
- pIC50 (Leishmania donovani): 4.638
- IC50 (Leishmania donovani): 30.9 µM
- pIC50 (Trypanosoma brucei): 5.649 and 5.647
- IC50 (Trypanosoma brucei): 2.36 µM

SMILES: CC(C)N1CCCC(C(=O)N2CCN(c3nsc4ccccc34)CC2)C1 (configuration not stated)
- pIC50 (Leishmania donovani): 4.419
- IC50 (Leishmania donovani): 30.3 µM
- pIC50 (Trypanosoma brucei): 4.562 and 4.572
- IC50 (Trypanosoma brucei): 20.3 µM

SMILES: Cc1c(C)c(C)c2[nH]c(-c3cn(C4CCNCC4)nn3)nc2c1C
- pIC50 (Leishmania donovani): 4.511
- IC50 (Leishmania donovani): 19.8 µM
- pIC50 (Trypanosoma brucei): 5.199 and 5.184
- IC50 (Trypanosoma brucei): 6.01 µM
